Assay results published in PubChem BioAssay (NCI).
Several values for one entry are separate records, joined by “and”; a condition that tells them apart may be missing. Equal values may be shown once.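 Cells were grown in 96-well plates and exposed to each compound for 48 hours at five concentrations; endpoints were interpolated linearly between bracketing concentrations, or set to the highest concentration if not reached. Here, GI50 denotes the concentration required for 50% inhibition of growth. The concentration for full growth arrest is given as TGI.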

Legend:
Test in all cases: NCI anticancer screen, dose series, 48 h
[1] = test system: COLO 205 colon
[2] = test system: DU-145 prostate
[3] = test system: HOP-92 NSCLC
[4] = test system: HS 578T breast
[5] = test system: MALME-3M melanoma
[6] = test system: MOLT-4 leukemia
[7] = test system: RXF 393 renal
[8] = test system: SF-539 CNS
[9] = test system: SK-OV-3 ovarian
[10] = test system: UO-31 renal

Row | Structure (SMILES) | TGI [1] | TGI [2] | TGI [3] | TGI [4] | TGI [5] | TGI [6] | TGI [7] | TGI [8] | TGI [9] | TGI [10] | GI50 [1] | GI50 [2] | GI50 [3] | GI50 [4] | GI50 [5] | GI50 [6] | GI50 [9] | GI50 [10] | GI50 [7] | GI50 [8]
1 | CC(=O)/C(=N\N=C(N)N)c1ccccc1 | > 100 µM | > 100 µM | > 100 µM | > 100 µM | > 100 µM | > 100 µM | > 100 µM | > 100 µM | > 100 µM | > 100 µM | – | – | – | – | – | – | – | – | – | –
2 | Cc1cc(C)nc(NC(=O)COc2ccc(Cl)cc2)c1 | > 100 µM | > 100 µM | > 100 µM | > 100 µM | > 100 µM | > 100 µM | > 100 µM | > 100 µM | > 100 µM | – | – | – | – | – | – | – | – | – | – | –
3 | C[C@]12CCC3c4ccc(O)cc4CCC3C1CC[C@@H]2NC(=O)/C=C/c1ccc(O)c(O)c1 (some centres not stated) | 32.9 µM | 32.5 µM | 25.1 µM | > 100 µM | 70.9 µM | 24 µM | – | – | 31.6 µM | 47 µM | 13.1 µM | 13.1 µM | 5.59 µM | 15.4 µM | 25.1 µM | 3.34 µM | 14.8 µM | 11.9 µM | – | –
4 | O=C(OCC1=CC(=O)c2ccccc2C1=O)c1ccccc1 | 10.7 µM | 3.6 µM | 34.9 µM | 51.7 µM | 3.12 µM | – | 26.5 µM | 25.3 µM | – | 29.1 µM | 2.74 µM | 1.83 µM | 20.2 µM | 14.3 µM | 1.43 µM | – | – | 15.6 µM | 13.6 µM | 12.2 µM
5 | O=C(O)C(Cc1ccccc1)N1C(=O)/C(=C/C(Cl)=C/c2ccc([N+](=O)[O-])cc2)SC1=S (configuration not stated) | 6.21 µM | 4.56 µM | 5.71 µM | > 100 µM | 4.82 µM | > 100 µM | 3.02 µM | – | > 100 µM | 3.1 µM | 2.45 µM | 2.06 µM | 2.35 µM | 4.37 µM | 2.13 µM | 3.14 µM | 4.13 µM | 1.59 µM | 1.54 µM | –
6 | CCOc1ccc2cc(-c3nn(CC4CCN(C)CC4)c4ncnc(N)c34)ccc2c1 | 26.7 µM | > 100 µM | 26.1 µM | 33.7 µM | – | 24.6 µM | 18.6 µM | 27.2 µM | 36.1 µM | 19.5 µM | 11.9 µM | 28.4 µM | 5.9 µM | 11.1 µM | – | 4.84 µM | 11.2 µM | 4.2 µM | 4.12 µM | 14.1 µM
7 | O=C(O)CCN1C(=S)CSC1=S | > 100 µM | > 100 µM | > 100 µM | > 100 µM | > 100 µM | > 100 µM | > 100 µM | > 100 µM | > 100 µM | – | – | – | – | – | – | – | – | – | – | –
8 | CSC(=S)NCc1cn(C)c2ccccc12 | 65.9 µM | > 100 µM | > 100 µM | 73.6 µM | 92.4 µM | – | 59.6 µM | 62.3 µM | > 100 µM | > 100 µM | 17.5 µM | 29.1 µM | 23.9 µM | 26.3 µM | 24.6 µM | – | 30.2 µM | 22.3 µM | 17.9 µM | 25 µM
9 | COc1ccc(-c2cn3ccnc3c(-c3ccc(Cl)cc3)n2)cc1 | > 100 µM | > 100 µM | 48.4 µM | 48.2 µM | – | > 100 µM | > 100 µM | 58 µM | > 100 µM | > 100 µM | 5.49 µM | 11.7 µM | 10.2 µM | 3.83 µM | – | 4.9 µM | 20.7 µM | 33.1 µM | 28.2 µM | 8.97 µM
10 | CN(CCOc1ccc(NS(C)(=O)=O)cc1)CCc1ccc(NS(C)(=O)=O)cc1 | > 100 µM | > 100 µM | > 100 µM | > 100 µM | > 100 µM | > 100 µM | > 100 µM | > 100 µM | – | > 100 µM | > 100 µM | > 100 µM | > 100 µM | > 100 µM | > 100 µM | > 100 µM | – | > 100 µM | > 100 µM | > 100 µM
11 | COc1cc(C2CC(c3ccc(Cl)cc3)=NN2C(C)=O)ccc1Oc1ccnc2cc(Cl)ccc12 (configuration not stated) | – | > 100 µM | 62.6 µM | > 100 µM | > 100 µM | > 100 µM | 20.1 µM | – | – | – | – | > 100 µM | 2.32 µM | 2.94 µM | > 100 µM | > 100 µM | – | – | 3.32 µM | –
12 | CN1C2C=CC(=O)C1C(C#N)C2 (configuration not stated) | – | > 100 µM | 57.7 µM and 93.5 µM | > 100 µM | 51 µM and > 100 µM | > 100 µM | 64.3 µM and > 100 µM | 84 µM and > 100 µM | > 100 µM | 39 µM and > 100 µM | – | – | – | – | – | – | – | 19.1 µM and 39.8 µM | 23.9 µM and 57.7 µM | –
13 | CCNc1ccc2c(c1)C(=O)N(OS(C)(=O)=O)C2=O | > 100 µM | > 100 µM | > 100 µM | > 100 µM | > 100 µM | – | > 100 µM | 51.5 µM | > 100 µM | > 100 µM | – | – | – | – | – | – | – | – | – | –
